Data reported in patent EP4700027A1, “CRYSTALLINE FORM OF NITROGEN-CONTAINING TETRACYCLIC COMPOUND AND PREPARATION METHOD THEREFOR” (Jiangsu Hengrui Pharmaceuticals Co., Ltd., priority 2023, dated 2024).
One block for each compound: values may come before it.

Columns and labels:
[1] = Influencing factor stability study on crystal forms (light, high temperature, high humidity, 30 days); assay type: physicochemical
[2] = Dynamic vapor sorption (DVS) hygroscopicity testing; assay type: physicochemical
Source text: According to the description of hygroscopicity characteristics and the definitions of hygroscopic weight gains in "General Rule 9103, Guidelines for Hygroscopicity Trials for Pharmaceuticals" in the Chinese Pharmacopoeia, Volume IV, 2015 Edition, • deliquescent: sufficient water is absorbed to form a liquid; • extremely hygroscopic: the hygroscopic weight gain is not less than 15%; • hygroscopic: the hygroscopic weight gain is less than 15% but not less than 2%; • slightly hygroscopic: the hygroscopic weight gain is less than 2% but not less than 0.2%; nonhygroscopic or practically nonhygroscopic: the hygroscopic weight gain is less than 0.2%.
DVS refers to dynamic vapor sorption: The analysis was performed using SMS DVS Advantage; at 25 °C, the humidity was changed as follows: 50%-95%-0%-95%-50%, in steps of 10% (5% for the last step) (specific humidity ranges are shown in corresponding patterns, and those listed here were used in most cases); the criterion was dm/dt being not greater than 0.002%.

[3] = Light exposure (4500 Lux), 5 days
[4] = Light exposure (4500 Lux), 10 days
[5] = Light exposure (4500 Lux), 30 days
[6] = Light exposure (4500 Lux), 7 days
[7] = Light exposure (4500 Lux), 14 days

Color and state ([1]; 40 °C, 5 days): Off-white solid
Crystal form ([1]; 40 °C, 5 days): Did not change
Purity (%) ([1]; 40 °C, 5 days): 98.0%
Color and state ([1]; 40 °C, 10 days): Off-white solid
Crystal form ([1]; 40 °C, 10 days): Did not change
Purity (%) ([1]; 40 °C, 10 days): 97.6%
Color and state ([1]; 40 °C, 30 days): Off-white solid
Crystal form ([1]; 40 °C, 30 days): Did not change
Purity (%) ([1]; 40 °C, 30 days): 97.2%
Color and state ([1]; 60 °C, 5 days): Off-white solid
Crystal form ([1]; 60 °C, 5 days): Did not change
Purity (%) ([1]; 60 °C, 5 days): 98.0%
Color and state ([1]; 60 °C, 10 days): Off-white solid
Crystal form ([1]; 60 °C, 10 days): Did not change
Purity (%) ([1]; 60 °C, 10 days): 97.9%
Color and state ([1]; 60 °C, 30 days): Off-white solid
Crystal form ([1]; 60 °C, 30 days): Did not change
Purity (%) ([1]; 60 °C, 30 days): 97.5%
Color and state ([1]; 75% RH, 5 days): Off-white solid
Crystal form ([1]; 75% RH, 5 days): Did not change
Purity (%) ([1]; 75% RH, 5 days): 98.1%
Color and state ([1]; 75% RH, 10 days): Off-white solid
Crystal form ([1]; 75% RH, 10 days): Did not change
Purity (%) ([1]; 75% RH, 10 days): 98.1%
Color and state ([1]; 75% RH, 30 days): Off-white solid
Crystal form ([1]; 75% RH, 30 days): Did not change
Purity (%) ([1]; 75% RH, 30 days): 98.1%
Color and state ([1]; 92.5% RH, 5 days): Off-white solid
Crystal form ([1]; 92.5% RH, 5 days): Did not change
Purity (%) ([1]; 92.5% RH, 5 days): 98.1%
Color and state ([1]; 92.5% RH, 10 days): Off-white solid
Crystal form ([1]; 92.5% RH, 10 days): Did not change
Purity (%) ([1]; 92.5% RH, 10 days): 98.1%
Color and state ([1]; 92.5% RH, 30 days): Off-white solid
Crystal form ([1]; 92.5% RH, 30 days): Did not change
Purity (%) ([1]; 92.5% RH, 30 days): 98.1%
Color and state ([1]; Initial, 0 days): Off-white solid
Crystal form ([1]; Initial, 0 days): Crystal form C
Purity (%) ([1]; Initial, 0 days): 98.2%
Color and state [1, 3]: Off-white solid
Crystal form [1, 3]: Did not change
Purity (%) [1, 3]: 98.0%
Color and state [1, 4]: Off-white solid
Crystal form [1, 4]: Did not change
Purity (%) [1, 4]: 97.9%
Color and state [1, 5]: Off-white solid
Crystal form [1, 5]: Did not change
Purity (%) [1, 5]: 97.5%
SMILES: C=CC(=O)N1CCN2C(=O)c3cc(F)c(-c4ccc(F)c5sc(N)c(C#N)c45)c4c(Cl)nn(c34)CC[C@H]2C1 [crystal form C]

Color and state ([1]; 40 °C, 5 days): Off-white solid
Crystal form ([1]; 40 °C, 5 days): Did not change
Purity (%) ([1]; 40 °C, 5 days): 97.8%
Color and state ([1]; 40 °C, 10 days): Off-white solid
Crystal form ([1]; 40 °C, 10 days): Did not change
Purity (%) ([1]; 40 °C, 10 days): 97.5%
Color and state ([1]; 40 °C, 30 days): Off-white solid
Crystal form ([1]; 40 °C, 30 days): Did not change
Purity (%) ([1]; 40 °C, 30 days): 96.7%
Color and state ([1]; 60 °C, 5 days): Off-white solid
Crystal form ([1]; 60 °C, 5 days): Did not change
Purity (%) ([1]; 60 °C, 5 days): 97.8%
Color and state ([1]; 60 °C, 10 days): Off-white solid
Crystal form ([1]; 60 °C, 10 days): Did not change
Purity (%) ([1]; 60 °C, 10 days): 97.7%
Color and state ([1]; 60 °C, 30 days): Off-white solid
Crystal form ([1]; 60 °C, 30 days): Did not change
Purity (%) ([1]; 60 °C, 30 days): 97.3%
Color and state ([1]; 75% RH, 5 days): Off-white solid
Crystal form ([1]; 75% RH, 5 days): Did not change
Purity (%) ([1]; 75% RH, 5 days): 97.9%
Color and state ([1]; 75% RH, 10 days): Off-white solid
Crystal form ([1]; 75% RH, 10 days): Did not change
Purity (%) ([1]; 75% RH, 10 days): 97.9%
Color and state ([1]; 75% RH, 30 days): Off-white solid
Crystal form ([1]; 75% RH, 30 days): Did not change
Purity (%) ([1]; 75% RH, 30 days): 97.9%
Color and state ([1]; 92.5% RH, 5 days): Off-white solid
Crystal form ([1]; 92.5% RH, 5 days): Did not change
Purity (%) ([1]; 92.5% RH, 5 days): 97.9%
Color and state ([1]; 92.5% RH, 10 days): Off-white solid
Crystal form ([1]; 92.5% RH, 10 days): Did not change
Purity (%) ([1]; 92.5% RH, 10 days): 97.9%
Color and state ([1]; 92.5% RH, 30 days): Off-white solid
Crystal form ([1]; 92.5% RH, 30 days): Did not change
Purity (%) ([1]; 92.5% RH, 30 days): 97.9%
Color and state ([1]; Initial, 0 days): Off-white solid
Crystal form ([1]; Initial, 0 days): Crystal form F
Purity (%) ([1]; Initial, 0 days): 97.9%
Color and state [1, 3]: Off-white solid
Crystal form [1, 3]: Did not change
Purity (%) [1, 3]: 97.8%
Color and state [1, 4]: Off-white solid
Crystal form [1, 4]: Did not change
Purity (%) [1, 4]: 97.8%
Color and state [1, 5]: Off-white solid
Crystal form [1, 5]: Did not change
Purity (%) [1, 5]: 97.7%
hygroscopic weight gain ([2]; accelerated experimental conditions (70% RH)): about 6.44%
crystal form re-identified after DVS testing ([2]; after DVS testing): did not change
hygroscopic weight gain ([2]; extreme conditions (90% RH)): about 6.65%
desorption process of the sample versus its adsorption process ([2]; humidity changing from 0% to 95% RH): did not overlap
hygroscopic weight gain ([2]; normal storage conditions (25 °C and 60% RH)): about 6.35%
SMILES: C=CC(=O)N1CCN2C(=O)c3cc(F)c(-c4ccc(F)c5sc(N)c(C#N)c45)c4c(Cl)nn(c34)CC[C@H]2C1 [crystal form F]

Color and state ([1]; 40 °C, 7 days): Off-white solid
Crystal form ([1]; 40 °C, 7 days): Did not change
Purity (%) ([1]; 40 °C, 7 days): 98.2%
Color and state ([1]; 40 °C, 14 days): Off-white solid
Crystal form ([1]; 40 °C, 14 days): Did not change
Purity (%) ([1]; 40 °C, 14 days): 98.1%
Color and state ([1]; 40 °C, 30 days): Off-white solid
Crystal form ([1]; 40 °C, 30 days): Did not change
Purity (%) ([1]; 40 °C, 30 days): 97.7%
Color and state ([1]; 60 °C, 7 days): Off-white solid
Crystal form ([1]; 60 °C, 7 days): Did not change
Purity (%) ([1]; 60 °C, 7 days): 98.3%
Color and state ([1]; 60 °C, 14 days): Off-white solid
Crystal form ([1]; 60 °C, 14 days): Did not change
Purity (%) ([1]; 60 °C, 14 days): 98.2%
Color and state ([1]; 60 °C, 30 days): Off-white solid
Crystal form ([1]; 60 °C, 30 days): Did not change
Purity (%) ([1]; 60 °C, 30 days): 97.7%
Color and state ([1]; 75% RH, 7 days): Off-white solid
Crystal form ([1]; 75% RH, 7 days): Did not change
Purity (%) ([1]; 75% RH, 7 days): 98.4%
Color and state ([1]; 75% RH, 14 days): Off-white solid
Crystal form ([1]; 75% RH, 14 days): Did not change
Purity (%) ([1]; 75% RH, 14 days): 98.3%
Color and state ([1]; 75% RH, 30 days): Off-white solid
Crystal form ([1]; 75% RH, 30 days): Did not change
Purity (%) ([1]; 75% RH, 30 days): 98.4%
Color and state ([1]; 92.5% RH, 7 days): Off-white solid
Crystal form ([1]; 92.5% RH, 7 days): Did not change
Purity (%) ([1]; 92.5% RH, 7 days): 98.3%
Color and state ([1]; 92.5% RH, 14 days): Off-white solid
Crystal form ([1]; 92.5% RH, 14 days): Did not change
Purity (%) ([1]; 92.5% RH, 14 days): 98.3%
Color and state ([1]; 92.5% RH, 30 days): Off-white solid
Crystal form ([1]; 92.5% RH, 30 days): Did not change
Purity (%) ([1]; 92.5% RH, 30 days): 98.3%
Color and state ([1]; Initial, 0 days): Off-white solid
Crystal form ([1]; Initial, 0 days): Crystal form H
Purity (%) ([1]; Initial, 0 days): 98.3%
Color and state [1, 6]: Off-white solid
Crystal form [1, 6]: Did not change
Purity (%) [1, 6]: 97.8%
Color and state [1, 7]: Off-white solid
Crystal form [1, 7]: Did not change
Purity (%) [1, 7]: 96.8%
Color and state [1, 5]: Off-white solid
Crystal form [1, 5]: Did not change
Purity (%) [1, 5]: 94.0%
SMILES: C=CC(=O)N1CCN2C(=O)c3cc(F)c(-c4ccc(F)c5sc(N)c(C#N)c45)c4c(Cl)nn(c34)CC[C@H]2C1 [crystal form H]

Color and state ([1]; 40 °C, 7 days): Off-white solid
Crystal form ([1]; 40 °C, 7 days): Did not change
Purity (%) ([1]; 40 °C, 7 days): 99.1%
Color and state ([1]; 40 °C, 14 days): Off-white solid
Crystal form ([1]; 40 °C, 14 days): Did not change
Purity (%) ([1]; 40 °C, 14 days): 99.0%
Color and state ([1]; 40 °C, 30 days): Off-white solid
Crystal form ([1]; 40 °C, 30 days): Did not change
Purity (%) ([1]; 40 °C, 30 days): 98.9%
Color and state ([1]; 60 °C, 7 days): Off-white solid
Crystal form ([1]; 60 °C, 7 days): Did not change
Purity (%) ([1]; 60 °C, 7 days): 99.1%
Color and state ([1]; 60 °C, 14 days): Off-white solid
Crystal form ([1]; 60 °C, 14 days): Did not change
Purity (%) ([1]; 60 °C, 14 days): 99.0%
Color and state ([1]; 60 °C, 30 days): Off-white solid
Crystal form ([1]; 60 °C, 30 days): Did not change
Purity (%) ([1]; 60 °C, 30 days): 98.9%
Color and state ([1]; 75% RH, 7 days): Off-white solid
Crystal form ([1]; 75% RH, 7 days): Did not change
Purity (%) ([1]; 75% RH, 7 days): 99.1%
Color and state ([1]; 75% RH, 14 days): Off-white solid
Crystal form ([1]; 75% RH, 14 days): Did not change
Purity (%) ([1]; 75% RH, 14 days): 99.1%
Color and state ([1]; 75% RH, 30 days): Off-white solid
Crystal form ([1]; 75% RH, 30 days): Did not change
Purity (%) ([1]; 75% RH, 30 days): 99.1%
Color and state ([1]; 92.5% RH, 7 days): Off-white solid
Crystal form ([1]; 92.5% RH, 7 days): Did not change
Purity (%) ([1]; 92.5% RH, 7 days): 99.1%
Color and state ([1]; 92.5% RH, 14 days): Off-white solid
Crystal form ([1]; 92.5% RH, 14 days): Did not change
Purity (%) ([1]; 92.5% RH, 14 days): 99.1%
Color and state ([1]; 92.5% RH, 30 days): Off-white solid
Crystal form ([1]; 92.5% RH, 30 days): Did not change
Purity (%) ([1]; 92.5% RH, 30 days): 99.1%
Color and state ([1]; Initial, 0 days): Off-white solid
Crystal form ([1]; Initial, 0 days): Crystal form L
Purity (%) ([1]; Initial, 0 days): 99.1%
Color and state [1, 6]: Off-white solid
Crystal form [1, 6]: Did not change
Purity (%) [1, 6]: 98.6%
Color and state [1, 7]: Off-white solid
Crystal form [1, 7]: Did not change
Purity (%) [1, 7]: 98.2%
Color and state [1, 5]: Off-white solid
Crystal form [1, 5]: Did not change
Purity (%) [1, 5]: 98.3%
SMILES: C=CC(=O)N1CCN2C(=O)c3cc(F)c(-c4ccc(F)c5sc(N)c(C#N)c45)c4c(Cl)nn(c34)CC[C@H]2C1 [crystal form L]
